Assay results: ChEMBL document CHEMBL1124788, “Conformation-activity relationship study of 5-HT3 receptor antagonists and a definition of a model for this receptor site” (J Med Chem, 1990)

Columns and labels:
[1] = target: Serotonin 3 (5-HT3) receptor; test: (§1) Potency at neuronal 5-hydroxytryptamine 3 receptor in the rabbit heart; type: protein-complex assay, Oryctolagus cuniculus
[2] = target: T1, Serotonin 3 receptor (5HT3) (Mus musculus) (UniProt Q9JHJ5+P23979); test: Binding affinity towards 5-hydroxytryptamine 3 receptor was determined by using [3H]-ICS 205-930 as radioligand in mouse N1E 115 cells; type: cell-based
T1 sequence (P23979 whole entry, looked up): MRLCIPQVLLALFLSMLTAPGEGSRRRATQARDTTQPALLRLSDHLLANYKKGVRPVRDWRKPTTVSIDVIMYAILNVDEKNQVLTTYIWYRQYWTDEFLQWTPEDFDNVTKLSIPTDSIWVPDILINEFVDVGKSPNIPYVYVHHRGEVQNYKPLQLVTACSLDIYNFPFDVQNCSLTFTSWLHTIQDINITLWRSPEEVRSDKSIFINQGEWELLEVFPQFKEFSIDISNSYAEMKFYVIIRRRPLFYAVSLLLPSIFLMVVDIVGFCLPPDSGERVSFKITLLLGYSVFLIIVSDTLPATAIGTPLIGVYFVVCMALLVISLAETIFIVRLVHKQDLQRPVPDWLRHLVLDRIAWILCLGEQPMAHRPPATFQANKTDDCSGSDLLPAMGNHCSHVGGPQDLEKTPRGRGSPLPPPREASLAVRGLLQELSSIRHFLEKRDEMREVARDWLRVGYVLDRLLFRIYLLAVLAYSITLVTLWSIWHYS
T1 sequence (Q9JHJ5 whole entry, looked up): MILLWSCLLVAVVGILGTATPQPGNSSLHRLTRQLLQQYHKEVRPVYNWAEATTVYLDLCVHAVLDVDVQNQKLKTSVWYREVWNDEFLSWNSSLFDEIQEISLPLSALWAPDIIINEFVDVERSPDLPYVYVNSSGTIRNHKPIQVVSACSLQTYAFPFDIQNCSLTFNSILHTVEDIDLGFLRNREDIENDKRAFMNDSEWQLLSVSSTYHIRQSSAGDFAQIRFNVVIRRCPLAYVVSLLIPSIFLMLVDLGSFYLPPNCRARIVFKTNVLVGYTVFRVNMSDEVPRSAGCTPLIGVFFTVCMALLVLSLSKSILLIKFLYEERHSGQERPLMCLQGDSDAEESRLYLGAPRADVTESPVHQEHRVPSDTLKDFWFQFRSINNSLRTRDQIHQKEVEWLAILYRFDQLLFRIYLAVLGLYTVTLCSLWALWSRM

[3] = target: Serotonin 3 (5-HT3) receptor; test: Potency at neuronal 5-hydroxytryptamine 3 receptors in the rabbit heart; type: protein-complex assay, Oryctolagus cuniculus
[4] = target: Serotonin 3 (5-HT3) receptor; test: Potency to 5-hydroxytryptamine 3 receptor entirely in guinea pig ileum; type: tissue-based, Cavia porcellus
[5] = target: Serotonin 3 (5-HT3) receptor; type: protein-complex assay, Oryctolagus cuniculus
[6] = target: T2, Serotonin 3 (5-HT3) receptor (Rattus norvegicus, UniProt P35563+Q9JJ16); test: Binding affinity to 5-hydroxytryptamine 3 receptor using [3H]quipazine as radioligand in rat cortex
T2 sequence (P35563 whole entry): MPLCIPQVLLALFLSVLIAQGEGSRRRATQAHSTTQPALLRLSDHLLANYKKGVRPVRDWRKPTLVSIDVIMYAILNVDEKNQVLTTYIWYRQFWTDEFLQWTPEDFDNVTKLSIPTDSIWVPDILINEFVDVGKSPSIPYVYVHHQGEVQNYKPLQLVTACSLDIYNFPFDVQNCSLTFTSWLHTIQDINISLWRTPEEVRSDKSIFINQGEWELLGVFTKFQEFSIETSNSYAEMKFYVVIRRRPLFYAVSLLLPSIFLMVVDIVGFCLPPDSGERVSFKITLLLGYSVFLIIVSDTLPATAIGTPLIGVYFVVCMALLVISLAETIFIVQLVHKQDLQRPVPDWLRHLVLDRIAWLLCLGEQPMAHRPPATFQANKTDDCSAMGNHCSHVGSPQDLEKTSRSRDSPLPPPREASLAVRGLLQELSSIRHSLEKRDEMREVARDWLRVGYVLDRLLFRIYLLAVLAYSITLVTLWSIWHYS
T2 sequence (Q9JJ16 whole entry): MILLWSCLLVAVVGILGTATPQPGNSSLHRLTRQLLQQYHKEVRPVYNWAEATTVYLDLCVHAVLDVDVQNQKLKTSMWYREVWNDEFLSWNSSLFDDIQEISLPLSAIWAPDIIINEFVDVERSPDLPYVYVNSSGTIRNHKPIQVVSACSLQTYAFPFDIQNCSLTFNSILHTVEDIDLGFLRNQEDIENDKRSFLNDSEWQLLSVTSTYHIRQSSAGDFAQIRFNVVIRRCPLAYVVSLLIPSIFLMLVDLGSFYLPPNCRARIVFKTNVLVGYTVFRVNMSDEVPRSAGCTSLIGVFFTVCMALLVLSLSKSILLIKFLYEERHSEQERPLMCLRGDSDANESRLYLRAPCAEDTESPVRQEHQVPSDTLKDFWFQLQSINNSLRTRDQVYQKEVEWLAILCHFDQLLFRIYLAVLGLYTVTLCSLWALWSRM

[7] = target: T2, Serotonin 3 (5-HT3) receptor; test: Binding affinity to 5-hydroxytryptamine 3 receptor using [3H]GR-65630 as radioligand in rat cortex
[8] = target: Serotonin 3 (5-HT3) receptor; test: Potency to 5-hydroxytryptamine 3 receptor using [3H]GR-65630 as radioligand in rat cortex
[9] = target: T1, Serotonin 3 receptor (5HT3) (Mus musculus); test: as §1; type: protein assay

Question: For Cc1cc(C)cc(C(=O)OC2CC3CCC(C2)N3C)c1 (stereo not given), which pA2 [1] is on record?
Answer: 9

Question: For COC(=O)[C@@H]1C2CCC(C[C@@H]1OC(=O)c1ccccc1)N2 (stereo not given in full), which pA2 [1] is on record?
Answer: 7.7

Question: Which pKD [2] does the source give for Cc1nccn1CC1CCc2c(c3ccccc3n2C)C1=O (stereo not given) here?
Answer: 7.9

Question: For O=C(c1c[nH]c2ccccc12)C1CCNCC1, which pA2 [3] is on record?
Answer: 8.3

Question: C[N+]1(C)CCC(C(=O)c2c[nH]c3ccccc23)CC1.[I-] was tested. Which pA2 [3] did it give?
Answer: 9.2

Question: COc1cc(N)c(Cl)cc1C(=O)N[C@H]1CCN2CCC[C@@H]1C2 was tested. Which pA2 [4] did it give?
Answer: 7.6

Question: What about the pA2 [3] of the same compound?
Answer: 8.9

Question: And the pA2 [5]?
Answer: 8.5

Question: Which pA2 [3] does the source give for CN1CC(=O)C2CCC(OC(=O)c3c[nH]c4ccccc34)C1C2 (stereo not given) here?
Answer: 9.8

Question: What does the source list for CN1[C@@H]2CC[C@H]1C[C@@H](OC(=O)c1c[nH]c3ccccc13)C2 [TROPISETRON]?
Answer: Ki [6]: 0.603 nM; Ki [7]: 3.16 nM; pKD [2]: 9.09

Question: What does the source list for CCN(CC)CCNC(=O)c1cc(Cl)c(N)cc1OC [METOCLOPRAMIDE]?
Answer: Ki [6]: 229 nM; Ki [7]: 200 nM; pA2 [3]: 7.3; pKD [2]: 6.65

Question: For CN1[C@@H]2CC[C@H]1C[C@@H](OC(=O)c1cc(Cl)cc(Cl)c1)C2 [BEMESETRON], which Ki [7] is on record?
Answer: 55 nM

Question: What about the pKD [2] of the same compound?
Answer: 8.21

Question: Which “Log Ki” value [8] does the source give for Cc1[nH]cnc1CCC(=O)c1cn(C)c2ccccc12 here?
Answer: -8.79

Question: How did the pKD [9] turn out when CN1C2CCC1CC(OC(=O)c1cn(C)c3ccc(F)cc13)C2 (stereo not given) was run?
Answer: 9.8

Question: For CN1[C@@H]2CC[C@H]1C[C@H](OC(=O)c1ccccc1)C2, which pA2 [1] is on record?
Answer: 7.2

Question: Which pKD [2] does the source give for O=C(OC1CC2CCC(C1)N2)c1c[nH]c2ccccc12 (stereo not given) here?
Answer: 9.14

Question: With c1ccc2nc(N3CCNCC3)ccc2c1 [QUIPAZINE] as the compound, how does the Ki [6] read?
Answer: 1 nM

Question: What about the Ki [7] of the same compound?
Answer: 1.41 nM

Question: And the pKD [2]?
Answer: 8.69
